Active and inactive are the calls of the source. The calls are words filed in the database; no cut-off is given here.

For one assay, the system named is Murid betaherpesvirus 1. Briefly: Antiviral activity against Murine cytomegalovirus infected in severe combined immunodeficient mouse assessed as reduction in viral load. The assay is classed as functional.
Assay [1] concerns Human betaherpesvirus 5. Briefly: Antiviral activity against Human cytomegalovirus infected in severe combined immunodeficient mouse with human fetal tissue implanted assessed as reduction in viral replication. The assay is classed as functional, organism-based.
In assay [2] the test system is Human betaherpesvirus 5. Briefly: Antiviral activity against Human cytomegalovirus. The assay is classed as functional, organism-based.

On to `Nc1nc2c(ncn2/C=C2/CC2(CO)CO)c(=O)[nH]1` [FILOCICLOVIR], for which the “fold change (FC)” value in the assay on Murid betaherpesvirus 1 is 2. The result with Human betaherpesvirus 5 [1] was Active.
`Nc1nc2c(ncn2COC(CO)CO)c(=O)[nH]1` [GANCICLOVIR] came in with an EC50 with Human betaherpesvirus 5 [2] of 4.1 µM.

For orientation: EC50 means the concentration giving half of the maximal effect. High values mean a need for much substance, low ones an effect from little substance.

The record behind these values is ChEMBL document CHEMBL1275262, “Stereoselective phosphorylation of cyclopropavir by pUL97 and competitive inhibition by maribavir” (Antimicrob Agents Chemother, 2010).
